In brackets after ≈: the same amount, converted by molar mass.
Legend:
animal enzymes = conditions: more recent studies; cited from earlier work
[1] = recent reports; cited from earlier work
physchem = conditions: 0.01 n hcl
[2] = in vivo; cited from earlier work
[3] = from the gastrointestinal tract, cited from earlier work
[4] = compared to digitoxin; cited from earlier work
[5] = 25° C.; cited from earlier work

| SMILES | resistance to degradation by animal enzymes (animal enzymes) | demethylation in man [1] | solubility (physchem) | closeness of therapeutic and toxic dose [2] | completeness of absorption vs digitoxin ([3]; compared to digitoxin) | extent of absorption [3] | duration of action [4] | onset of action [4] | solubility per ml of 0.1 N HCl [5] |
| --- | --- | --- | --- | --- | --- | --- | --- | --- | --- |
| CO[C@H]1[C@@H](O)C[C@H](O[C@H]2[C@@H](O)C[C@H](O[C@H]3[C@@H](O)C[C@H](O[C@H]4CC[C@@]5(C)[C@H](CC[C@@H]6[C@@H]5C[C@@H](O)[C@]5(C)[C@@H](C7=CC(=O)OC7)CC[C@]65O)C4)O[C@@H]3C)O[C@@H]2C)O[C@@H]1C [4'"-methyldigoxin] | very resistant to degradation by animal enzymes | actually demethylated in man |  |  |  |  |  |  |  |
| C[C@H]1O[C@@H](O[C@H]2[C@@H](O)C[C@H](O[C@H]3[C@@H](O)C[C@H](O[C@H]4CC[C@@]5(C)[C@H](CC[C@@H]6[C@@H]5C[C@@H](O)[C@]5(C)[C@@H](C7=CC(=O)OC7)CC[C@]65O)C4)O[C@@H]3C)O[C@@H]2C)C[C@H](O)[C@@H]1O [digoxin] |  |  | ~78 µg/mL (≈ 99.9 µM) | extremely close | not as completely absorbed | 50% to 70 | shorter | quite more rapid | about 78 mcg/ml |

Reference: US4021546A (priority 1976, dated 1977)
